Measurements reported in patent US5834487A, “Inhibition of 26S and 20S proteasome by indanones” (CV Therapeutics, priority 1996, dated 1998).
≈ marks a conversion by molar mass, not a printed value. Like-named read-outs stand apart in the source and are kept apart here. Non-standard residues stand in square brackets, D forms with d. Residues, ends and D or L forms follow the SMILES beside them. *: point of attachment. Nva = CCC[C@H](N)C(=O)O; Cbz = O=C(OCc1ccccc1)*

What was measured:
[1] = target: T1, 20S catalytic subunit of the proteasome (multicatalytic proteinase complex) (Bos taurus, UniProt Q32KL2); test: 20S proteasome chymotryptic activity, fluorogenic peptide cleavage; assay type: biochemical, bovine; details: 50 μM succinyl-leu-leu-val-tyr-7-amino-4-methyl coumarin, 15 minutes at 37° C, pH7.5
T1 construct: was purified to homogeneity from bovine brain according to published methods; from tissue; host or cells: bovine brain
Summary of the method: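 Purified bovine-brain 20S proteasome (2 μg) with 0.1-100 μg/ml inhibitor in 50 mM HEPES, 0.1% SDS, pH 7.5. Reaction started with 50 μM Suc-LLVY-AMC, 15 min at 37° C, stopped with pH 4.0 acetate; liberated AMC read by fluorescence (ex 370, em 430 nm).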

OVCAR cells = test: Celltiter 96 Aqueous cell proliferation assay, OVCAR; assay type: cell-based; details: 18 hours with compound
Protocol: (§1) Compounds prepared according to the method of Example 1 were assayed against several different cell lines. Cell monolayers were cultured in the presence of test compound for 18 hours to access their ability to inhibit cell proliferation. Cell proliferation was determined colorimetrically using the Celltiter 96 Aqueous non-radioactive cell proliferation assay (Promega) where cell proliferation is directly proportional to absorbance at 490 nm. Results are quoted as the IC50 in μg/ml for inhibition of cell proliferation in various cell types.

Panc-I cells = test: Celltiter 96 Aqueous cell proliferation assay, Panc-I; assay type: cell-based; details: 18 hours with compound
Protocol: as §1

[2] = system: LPS induced TNF synthesis; test: Inhibition of LPS induced TNF synthesis in RAW cells (ELISA); assay type: cell-based; details: 1 hour pretreatment, LPS 100 ng/ml, supernatant after 1 hour
Protocol: Compounds prepared according to the method of Example 1 were tested for the inhibition of LPS induced TNF synthesis. RAW cells were pretreated with different concentrations of test compound for 1 hour prior to the administration of lipopolysaccharide (100 ng/mi). Cell culture supernatants were harvested after 1 hour and assayed for TNF concentration by ELISA (Biosource)

RAW cells = test: Celltiter 96 Aqueous cell proliferation assay, RAW; assay type: cell-based; details: 18 hours with compound
Protocol: as §1

[3] = target: T2, chymotrypsin-like activity associated with the proteasome (Homo sapiens, UniProt P28074); details: cited from earlier work
T2 sequence (P28074 60-263): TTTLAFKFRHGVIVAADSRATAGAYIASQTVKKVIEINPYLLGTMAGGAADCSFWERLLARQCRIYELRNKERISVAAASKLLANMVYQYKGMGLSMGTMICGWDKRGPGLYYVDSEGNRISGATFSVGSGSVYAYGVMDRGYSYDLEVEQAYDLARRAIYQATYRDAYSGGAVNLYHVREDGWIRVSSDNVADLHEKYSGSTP

NF-κB = test: Inhibition of LPS-induced translocation of NF-κB to the nucleus, gel mobility shift assay; assay type: cell-based; details: RAW cells, 20 μg/ml for 1 hour, then LPS 100 ng/ml 1 hour (FIG. 3)
Protocol: RAW cells were treated for 1 hour with compound 187 (20 μg/ml) and then incubated with lipopolysaccharide (100 ng/ml) for a further one hour. Nuclear fractions were prepared according to standard procedures. Binding reactions for gel mobility shift assays contained 5 μg of nuclear extract protein, 50,000 cpm of ^32 P-labeled NF-κB consensus binding oligonucleotide in the presence and absence of a fifty fold excess of unlabeled oligonucleotide.

MCF-7 cells = test: Celltiter 96 Aqueous cell proliferation assay, MCF-7; assay type: cell-based; details: MCF-7, 18 hours with compound
Protocol: as §1

IκB degradation = test: Inhibition of LPS-induced IκB degradation, Western blot of RAW cell lysates; assay type: cell-based; details: 1 hour pretreatment, LPS 100 ng/ml 1 hour, anti-IκBα Western blot (FIG. 1)
Description: (§2) This Example examines the ability of compound 173 and particularly compound 187 described in Tables 1 & 2 above to inhibit proteasome activity as indicated, in part, by the presence of IκB and/or p105 in inhibited cells. In order for NF-κB to translocate to the nucleus in response to a stimulus such as lipopolysaccharide (LPS) and activate transcription two proteolytic events need to occur, namely degradation of the inhibitory protein IκB and processing of p105 to p50. These proteolytic events serve to unmask the nuclear localization signal of NF-κB.
RAW cells were pretreated with different concentrations of test compound for 1 hour prior to the administration of lipopolysaccharide (100 ng/ml). Whole cell lysates were harvested after 1 hour, 10 μg, protein was separated by SDS-PAGE, transferred to nitrocellulose and assayed for immunoreactivity with anti-IκBa antibody. Western blots, (See FIG. 1), were visualized using the Boehringer Mannheim Chemiluminescent detection kit.

CaCo cells = test: Celltiter 96 Aqueous cell proliferation assay, CaCo; assay type: cell-based; details: 18 hours with compound
Protocol: as §1

p105 to p50 processing = test: Inhibition of LPS-induced p105 to p50 processing, Western blot of RAW cell lysates; assay type: cell-based; details: 1 hour pretreatment, anti-p50 Western blot (FIG. 2)
Description: as §2
Compound 187 as described in Tables 1 & 2 above was used to pretreat RAW cells as described above, and whole cell lysates prepared as described above were analyzed for immunoreactivity toward an anti-p50 antibody. The results, set forth in FIG. 2 indicate that p50 and […] are both present in cells treated with as little as 5 μg/ml of compound 187, while in untreated cells, majority of P 105 has been processed to p50.

Molecule: COc1ccc2c(c1)C(CC(=O)NC(CC(C)C)C(=O)NC(CC(C)C)C(=O)NCc1ccc3c(c1)OCO3)CC2=O (mixture of isomers) [Compound 197]
- IC50 [1]: 0.2 µg/mL
- IC50 for inhibition of cell proliferation, OVCAR (OVCAR cells): 2 µg/mL
- IC50 for inhibition of cell proliferation, Panc-I (Panc-I cells): 8 µg/mL
- IC50 inhibition of LPS induced TNF synthesis [2]: 3 µg/mL
- IC50 for inhibition of cell proliferation, RAW (RAW cells): 12 µg/mL

Molecule: CCC[C@@H](C=O)NC(=O)[C@H](CC(C)C)NC(=O)[C@H](CC(C)C)NC(=O)OCc1ccccc1 [MG 115, N-carbobenzoxyl-L-leucinyl-L-leucinyl-L-norvalinal] (Cbz-Leu-Leu-[Nva]-aldehyde)
- Ki ([3]; literature value): 21 nM

Molecule: COc1ccc(CNC(=O)C(CC(C)C)NC(=O)C(CC(C)C)NC(=O)CC2CC(=O)c3ccc(OC)cc32)cc1 (mixture of isomers) [Compound 194]
- IC50 [1]: > 10 µg/mL
- IC50 for inhibition of cell proliferation, OVCAR (OVCAR cells): 3 µg/mL
- IC50 for inhibition of cell proliferation, Panc-I (Panc-I cells): 8 µg/mL
- IC50 inhibition of LPS induced TNF synthesis [2]: 3 µg/mL
- IC50 for inhibition of cell proliferation, RAW (RAW cells): 1 µg/mL

Molecule: COc1ccc2c(c1)C(CC(=O)NC(CC(C)C)C(=O)NC(CC(C)C)C(=O)NC1CCc3ccccc31)CC2=O (mixture of isomers) [Compound 187]
- IC50 [1]: 0.5 µg/mL
- IC50 for inhibition of cell proliferation, OVCAR (OVCAR cells): 5 µg/mL
- IC50 for inhibition of cell proliferation, Panc-I (Panc-I cells): 7 µg/mL
- IC50 inhibition of LPS induced TNF synthesis [2]: 5 µg/mL
- accumulation of NF-κB in the nucleus of cells (NF-κB): effective in inhibiting the accumulation of NF-κB in the nucleus of cells
- IC50 for inhibition of cell proliferation, MCF-7 (MCF-7 cells): 6 µg/mL
- IC50 for inhibition of cell proliferation, RAW (RAW cells): 10 µg/mL
- concentration at which IκB is present in treated cells (IκB degradation): ≤ 5 µg/mL
- IC50 for inhibition of cell proliferation, CaCo (CaCo cells): 8 µg/mL
- concentration at which p50 and p150 are both present in treated cells (p105 to p50 processing): ≤ 5 µg/mL

Molecule: COc1ccc2c(c1)C(CC(=O)NC(CC(C)C)C(=O)NC(CC(C)C)C(=O)NCc1ccccc1)CC2=O (mixture of isomers) [Compound 173]
- IC50 [1]: 0.5 µg/mL
- IC50 for inhibition of cell proliferation, OVCAR (OVCAR cells): 8 µg/mL
- IC50 for inhibition of cell proliferation, Panc-I (Panc-I cells): 17 µg/mL
- IC50 inhibition of LPS induced TNF synthesis [2]: 5 µg/mL
- IC50 for inhibition of cell proliferation, MCF-7 (MCF-7 cells): 10 µg/mL
- IC50 for inhibition of cell proliferation, RAW (RAW cells): 20 µg/mL
- concentration at which IκB is present in treated cells (IκB degradation): ≤ 5 µg/mL
- IC50 for inhibition of cell proliferation, CaCo (CaCo cells): 17 µg/mL

Molecule: N-acetyl-L-leucinyl-L-leucinal-L-norleucinal [ALLN]
- Ki ([3]; literature values): 140 nM

Molecule: COc1ccc2c(c1)C(CC(=O)Nc1ccc(Cl)c(Cl)c1)CC2=O (racemic) [Compound 157]
- IC50 [1]: > 10 µg/mL

Molecule: COc1ccc2c(c1)C(CC(=O)NC(CC(C)C)C(=O)NC(CC(C)C)C(=O)Nc1ccccc1)CC2=O (mixture of isomers) [Compound 184]
- IC50 [1]: > 10 µg/mL

Molecule: COc1ccc2c(c1)C(CC(=O)N[C@@H](CC(C)C)C(=O)N[C@H](CC1CCCCC1)C(=O)NCC(N)=O)CC2=O (stereo partly drawn) [Compound 89]
- IC50 [1]: > 10 µg/mL

Molecule: COc1ccc2c(c1)C(CC(=O)NC(CC(C)C)C(=O)NCc1ccccc1)CC2=O (mixture of isomers) [Compound 198]
- IC50 [1]: > 10 µg/mL

Molecule: COc1ccc2c(c1)C(CC(=O)NCCCCCCN)CC2=O (stereo not drawn) [Compound 150]
- IC50 [1]: > 10 µg/mL

Molecule: COc1ccc2c(c1)C(CC(=O)NC(CC(C)C)C(=O)NC(CC(C)C)C(=O)NC(Cc1ccccc1)C(N)=O)CC2=O (mixture of isomers) [Compound 128]
- IC50 [1]: > 10 µg/mL

Molecule: COc1ccc2c(c1)C(CC(=O)NC(CC(C)C)C(=O)NC(CC(C)C)C(=O)O)CC2=O (mixture of isomers) [Compound 172]
- IC50 [1]: > 10 µg/mL

Molecule: COc1ccc2c(c1)C(CC(=O)N(CCO)Cc1ccccc1)CC2=O (stereo not drawn) [Compound 76]
- IC50 [1]: > 10 µg/mL

Molecule: COc1ccc2c(c1)C(CC(=O)NC(CC(C)C)C(=O)NC(CC(C)C)C(=O)NCc1c(F)cccc1F)CC2=O (mixture of isomers) [Compound 196]
- IC50 [1]: 0.08 µg/mL
- IC50 for inhibition of cell proliferation, OVCAR (OVCAR cells): 2 µg/mL
- IC50 for inhibition of cell proliferation, Panc-I (Panc-I cells): 8 µg/mL
- IC50 inhibition of LPS induced TNF synthesis [2]: 3 µg/mL
- IC50 for inhibition of cell proliferation, RAW (RAW cells): 7 µg/mL

Molecule: COc1ccc2c(c1)C(CC(=O)N(C)C)CC2=O (stereo not drawn) [Compound 78]
- IC50 [1]: > 10 µg/mL

Molecule: COc1ccc2c(c1)C(CC(=O)NC(CC(C)C)C(=O)N1CCCC1C(=O)NCC(N)=O)CC2=O (mixture of isomers) [Compound 92]
- IC50 [1]: > 10 µg/mL

Molecule: COc1ccc2c(c1)C(CC(=O)N[C@@H](CC(C)C)C(=O)N[C@@H](C(=O)NCC(N)=O)c1ccccc1)CC2=O (stereo partly drawn) [Compound 91]
- IC50 [1]: 10 µg/mL (≈ 19.1 µM)

Molecule: COc1ccc2c(c1)C(CC(=O)NC(CC(C)C)C(=O)NC(CC(C)C)C(=O)NCCO)CC2=O (mixture of isomers) [Compound 178]
- IC50 [1]: > 10 µg/mL

Molecule: CSCC[C@@H](C=O)NC(=O)[C@H](CC(C)C)NC(=O)[C@H](CC(C)C)NC(C)=O [LLM, N-acetyl-L-leucinyl-L-leucinyl-methional] (Ac-Leu-Leu-Met-aldehyde)
- Ki ([3]; literature values): 140 nM
